Values quoted from earlier work in patent US20210227865A1, “LOW GLYCEMIC COMPOSITION AND METHODS OF MAKING AND USING THEREOF” (Seattle Gummy Company, priority 2018, published 2021).

Key:
[1] = in vivo
[2] = for sweetness compared with sucrose (in words): relative to sucrose (table sugar)
[3] = FIG. 3 (trehalose), FIG. 4 (isomaltulose)

| SMILES | GI value [1] | sweetness compared with sucrose (in words) [2] | further results |
| --- | --- | --- | --- |
| O=C(CO)[C@@H](O)[C@H](O)[C@H](O)CO [fructose] | 19 | – | – |
| O=C(CO)[C@H](O)[C@@H](O)[C@H](O)CO [Sorbose, sorbose] | – | equivalent to sucrose in sweetness | – |
| OC[C@H]1O[C@H](OC[C@H]2OC(O)(CO)[C@@H](O)[C@@H]2O)[C@H](O)[C@@H](O)[C@@H]1O (stereo partly drawn) [Isomaltulose, isomaltulose] | about 30 | – | effect on blood glucose levels (in words) [3]: does not cause a spike in glucose levels |
| O=C(CO)[C@@H](O)[C@@H](O)[C@H](O)CO [Tagatose, tagatose] | – | nearly as sweet as sucrose | – |
| OC[C@H]1O[C@@](CO)(O[C@H]2O[C@H](CO)[C@@H](O)[C@H](O)[C@H]2O)[C@@H](O)[C@@H]1O [sucrose] | 63 | – | – |
| O=C(CO)[C@H](O)[C@H](O)[C@H](O)CO [Psicose, psicose] | – | identical to sucrose | sweetness relative to sucrose ([2]; relative to sucrose): 70% |
| OC[C@H]1O[C@H](O[C@H]2O[C@H](CO)[C@@H](O)[C@H](O)[C@H]2O)[C@H](O)[C@@H](O)[C@@H]1O [trehalose] | – | – | effect on blood glucose levels (in words) [3]: does not cause a spike in glucose levels |
